Laboratory results reported in ChEMBL document CHEMBL5137022, “Antitumor Activity of Rutaecarpine in Human Colorectal Cancer Cells by Suppression of Wnt/β-Catenin Signaling” (J Nat Prod, 2022).

Key:
[1] = system: RKO; assay: Antiproliferative activity against human RKO cells harboring wild type beta-catenin assessed as reduction in cell viability measured after 72 hrs by SRB assay; type: functional, cell-based
[2] = system: SW480; assay: Antiproliferative activity against human SW480 cells harboring wild type beta-catenin assessed as reduction in cell viability measured after 72 hrs by SRB assay; type: functional, cell-based; details: SW480, 72 h
[3] = system: HCT-15; assay: Antiproliferative activity against human HCT-15 cells harboring wild type beta-catenin assessed as reduction in cell viability measured after 72 hrs by SRB assay; type: functional, cell-based; details: HCT-15, 72 h
[4] = system: HCT-116; assay: Antiproliferative activity against human HCT-116 cells harboring beta-catenin mutant assessed as reduction in cell viability measured after 72 hrs by SRB assay; type: functional, cell-based; details: HCT-116, 72 h
[5] = system: LS174T; assay: Antiproliferative activity against human LS174T cells harboring beta-catenin mutant assessed as reduction in cell viability measured after 72 hrs by SRB assay; type: functional, cell-based
[6] = system: CCD-841CoN; assay: Antiproliferative activity against human CCD-841CoN cells assessed as reduction in cell viability measured after 72 hrs by SRB assay; type: functional, cell-based
[7] = system: CCD-18Co; assay: Antiproliferative activity against human CCD-18Co cells assessed as reduction in cell viability measured after 72 hrs by SRB assay; type: functional, cell-based
[8] = Toxicity in BALB/c nude mouse xenografted with human LS174T cells assessed as effect on body weight at 10 to 30 mg/kg, ip administered 3 times per week for 21 days; type: organism-based; details: in vivo, 504 h, dose 10-30 mg/kg, time 21 day

Row | IC50 [2] | IC50 [3] | IC50 [4] | SMILES | IC50 [1] | IC50 [5] | IC50 [6] | IC50 [7] | Activity [8]
1 | 800 nM | 1800 nM | 500 nM | COc1cc([C@@H]2c3cc4c(cc3[C@@H](O[C@@H]3O[C@@H]5CO[C@@H](C)O[C@H]5[C@H](O)[C@H]3O)[C@H]3COC(=O)[C@H]23)OCO4)cc(OC)c1O [ETOPOSIDE] | 1900 nM | 900 nM | 7.6 µM | 20.3 µM | 
2 | 3800 nM | 2700 nM | 600 nM | CCc1c2c(nc3ccc(OC(=O)N4CCC(N5CCCCC5)CC4)cc13)-c1cc3c(c(=O)n1C2)COC(=O)[C@]3(O)CC [IRINOTECAN] | 700 nM | 700 nM | 13.2 µM | 18.5 µM | Toxic
